In US8389541B2, “Inhibitors of protein tyrosine kinase activity” (MethylGene Inc., priority 2007, dated 2013):

test system: CNV progression; assay: In vivo choroidal neovascularization (CNV) model, laser-induced; conditions: Brown-Norway rats, intravitreal injection 30 and/or 100 nmol/eye on Day 1 and/or Day 3 and/or Day 7, CNV area on Day 10
Text: This test measures the capacity of compounds to inhibit CNV progression. CNV is the main cause of severe vision loss in patients suffering from age-related macular degeneration (AMD).
Male Brown-Norway rats (Japan Clea Co., Ltd.) were used in these studies.
Rats were anesthetized by intraperitoneal injection of pentobarbital, and the right pupil was dilated with 0.5% tropicamide and 0.5% phenylephrine hydrochloride. The right eye received 6 laser burns between retinal vessels using a slit lamp delivery system of Green laser Photocoagulator (Nidex Inc., Japan), and microscope slide glass with Heaton™ (AMO Inc) used as a contact lens. The laser power was 100 or 200 mW for 0.1 second and spot diameter was 100 μm. At the time of laser burn, bubble production was observed, which is an indication of rupture of Bruch's membrane which is important for CNV generation.
Rats were divided into the groups based on their body weight using SAS software (SAS institute Japan, R8.1) after laser irradiation (Day 0). After animals were anesthetized, and the right pupil dilated (as above mentioned), the right eye of the animal received the compound or vehicle by intravitreal injection (5 or 10 μL/eye) at doses of 30 and/or 100 nmol/eyeon Day 1 and/or Day 3 and/or Day 7. The compounds were dissolved or suspended in CBS, PBS, or other adequate vehicles before injection.
On Day 10, the animals were anesthetized with ether, and high molecular weight fluorescein isothiocyanate (FITC)-dextran (SIGMA, 2×10^6 MW) was injected via a tail vein (20 mg/rat). About 30 min after FITC-dextran injection, animals were euthanized by ether or carbon dioxide, and the eyes were removed and fixed with 10% formaline neutral buffer solution. After over 1 hour of fixation, RPE-choroid-sclera flat mounts were obtained by removing cornea, lens and retina from the eyeballs. The flat mounts were mounted in 50% glycerol on a microscope slide, and the portion burned by laser was photographed using a fluorescence microscope (Nikon Corporation, excitation filter:465-495 nm, absorption filter:515-555 nm). The CNV area was obtained by measurement of hyper-fluorescence area observed on the photograph using Scion image.
The average CNV area of 6 burns was used as an individual value of CNV area, and the average CNV area of compound treated group was compared with that of the vehicle-treated group. […]

Structure (SMILES)	% Inhibition of CNV Progression
COCCNCc1cccc(-c2cc3nccc(Oc4ccc(NC(=O)Nc5cc(C)on5)cc4F)c3s2)n1 [162(269), 1-(3-fluoro-4-(2-(6-((2-methoxyethylamino)methyl)pyridin-2-yl)thieno[3,2-b]pyridin-7-yloxy)phenyl)-3-(5-methylisoxazol-3-yl)urea]	A (greater than or equal to 30% inhibition)
NCCCOCCOCCOCCCNCc1ccc(-c2cc3nccc(Oc4ccc(NC(=O)Nc5cc(C(F)(F)F)ccc5F)cc4F)c3s2)nc1 [177(284), 1-(4-(2-(5-(15-Amino-6,9,12-trioxa-2-azapentadecyl)pyridin-2-yl)thieno[3,2-b]pyridin-7-yloxy)-3-fluorophenyl)-3-(2-fluoro-5-(trifluoromethyl)phenyl)urea]	A (greater than or equal to 30% inhibition)
COCCNCc1ccc(-c2cc3nccc(Oc4ccc(NC(=O)Nc5cccc(C)c5)cc4F)c3s2)nc1 [161(268), 1-(3-fluoro-4-(2-(5-((2-methoxyethylamino)methyl)pyridin-2-yl)thieno[3,2-b]pyridin-7-yloxy)phenyl)-3-m-tolylurea]	B (≧10% to <30% inhibition)
COCCNCc1cnc(-c2cc3nccc(Oc4ccc(NC(=O)CC(=O)N(C)c5ccccc5)cc4F)c3s2)n1C [14(50), N^1-(3-Fluoro-4-(2-(5-((2-methoxyethylamino)methyl)-1-methyl-1H-imidazol-2-yl)thieno[3,2-b]pyridin-7-yloxy)phenyl)-N3-methyl-N^3-phenylmalonamide]	B (≧10% to <30% inhibition)
CN(C(=O)CC(=O)Nc1ccc(Oc2ccnc3cc(-c4ccc(CNCCS(C)(=O)=O)cc4)sc23)c(F)c1)c1ccccc1 [80(187), N1-(3-fluoro-4-(2-(4-((2-(methylsulfonyl)ethylamino)methyl)phenyl)thieno[3,2-b]pyridin-7-yloxy)phenyl)-N3-methyl-N3-phenylmalonamide]	A (greater than or equal to 30% inhibition)
COCCNCc1ccc(-c2cc3nccc(Oc4ccc(NC(=O)Nc5cc(C(C)(C)C)on5)cc4F)c3s2)nc1 [145(252), 1-(5-tert-butylisoxazol-3-yl)-3-(3-fluoro-4-(2-(5-((2-methoxyethylamino)methyl)pyridin-2-yl)thieno[3,2-b]pyridin-7-yloxy)phenyl)urea]	B (≧10% to <30% inhibition)
C=CCNC(=O)Nc1ccc(Oc2ccnc3cc(-c4ccc(CNCCOC)cn4)sc23)c(F)c1 [167(274), 1-allyl-3-(3-fluoro-4-(2-(5-((2-methoxyethylamino)methyl)pyridin-2-yl)thieno[3,2-b]pyridin-7-yloxy)phenyl)urea]	A (greater than or equal to 30% inhibition)
CCOCCNCc1ccc(-c2cc3nccc(Oc4ccc(NC(=O)Nc5cc(C)ccc5F)cc4F)c3s2)nc1 [173(280), 1-(4-(2-(5-((2-ethoxyethylamino)methyl)pyridin-2-yl)thieno[3,2-b]pyridin-7-yloxy)-3-fluorophenyl)-3-(2-fluoro-5-methylphenyl)urea]	A (greater than or equal to 30% inhibition)
COCCNCc1ccc(-c2cc3nccc(Oc4ccc(NC(=O)CC(=O)N(C)c5ccccc5)cc4F)c3s2)nc1 [116(223), N1-(3-fluoro-4-(2-(5-((2-methoxyethylamino)methyl)pyridin-2-yl)thieno[3,2-b]pyridin-7-yloxy)phenyl)-N3-methyl-N3-phenylmalonamide]	B (≧10% to <30% inhibition)
COCCNCc1cnc(-c2cc3nccc(Oc4ccc(NC(=O)C5(C(=O)Nc6ccc(F)cc6)CC5)cc4F)c3s2)n1C [163(270), N-(3-fluoro-4-(2-(5-((2-methoxyethylamino)methyl)-1-methyl-1H-imidazol-2-yl)thieno[3,2-b]pyridin-7-yloxy)phenyl)-N-(4-fluorophenyl)cyclopropane-1,1-dicarboxamide]	A (greater than or equal to 30% inhibition)
